Source: US10105403B2, “Methods of treating iron deficiency to prevent iron-deficiency anemia by administration of Lactobacillus plantarum” (Probi AB, priority 2005, dated 2018)

System: Caco-2 cells
Assay: Cellular 55Fe uptake and transfer across Caco-2 monolayers with bacterial suspensions
Type: cell-based
Method: Caco-2 cells were obtained from the American Type Culture Collection (Rockville, Md.) at passage 17 and used for experiments at passages 20-35. Stock cultures were maintained in Dulbecco's modified […] medium (DMEM) supplemented with 20% (v/v) fetal calf serum (FSC), […] penicillin G, and 100 mg/L streptomycin at 37° C. in a huminified atmosphere of 95% air-5% CO2. The growth medium was changed every second to third day. Cells were split at ˜80% confluence using 0.5 g/L trypsin with 0.5 mmol/L EDTA in Dulbecco's phosphate buffered saline (PBS). […]
Lactobacillus plantarum 299v (DSM9843), (5), Lactobacillus plantarum 299, (1), Lactobacillus plantarum Heal 9 (DSM 15312), (2), Lactobacillus plantarum Heal 19 (DSM15313), (4), Lactobacillus plantarum 299v mutant (AMJ1277), (3) and Lactobacillus reuteri, (6) were cultured in MRS broth at a rotary shaker (37° C., 200 rpm). […] The volume of cell culture corresponding to a certain cell-number was calculated from a predetermined standard curve. […]
Fresh supplemented DMEM was provided to the cells 1 day prior to the uptake and transfer assays. […] After 2 h incubation, the cells were washed four times with ice-cold wash buffer (150 mmol/L NaCl, 10 mmol/L HEPES, 1 mmol/L EDTA, pH7) and homogenized in 0.5M NaOH. ^55Fe transferred to the basolateral chamber or associated with the Caco-2 lysates was measured by liquid scintillation counting. […]

Lactobacillus reuteri
Transport % (FeCl3 10 μmol/l in HBSS/HEPES, 55Fe traced, 2 h incubation, 6.7×10^7 cells/ml (Lactobacillus reuteri 3.35×10^7 cells/ml), control without bacteria 0.06): 0.11%
Effect on Fe transport (in words) (FeCl3 10 μmol/l, Caco-2 monolayers, compared to neat Fe solution): an increase of the transport is seen, but not comparable with the different Lactobacillus plantarum strains
